# From patent US11642339B2 (THERAVANCE BIOPHARMA R&D IP, LLC, priority 2017, dated 2023)
# Test system: subjects with diabetic or idiopathic gastroparesis
# Experiment: DIGEST I Phase 2b: weekly GCSI-24H total score;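 also: Patient-reported daily electronic-diary symptom index rating nausea/vomiting, postprandial fullness/early satiety and bloating, averaged weekly, once-daily oral capsule taken before breakfast, baseline from 1-week pretreatment period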
# [1] = 5 mg/day, Week 4, diabetic patients
# [2] = 5 mg/day, Week 4, idiopathic patients
# [3] = 5 mg/day, Week 8, diabetic patients
# [4] = 5 mg/day, Week 8, idiopathic patients
# [5] = 5 mg/day, Week 12, diabetic patients
# [6] = 5 mg/day, Week 12, idiopathic patients
# [7] = 5 mg/day, Week 14 (off therapy), diabetic patients
# [8] = 5 mg/day, Week 14 (off therapy), idiopathic patients
# [9] = 15 mg/day, Week 4, diabetic patients
# [10] = 15 mg/day, Week 4, idiopathic patients
# [11] = 15 mg/day, Week 8, diabetic patients
# [12] = 15 mg/day, Week 8, idiopathic patients
# [13] = 15 mg/day, Week 12, diabetic patients
# [14] = 15 mg/day, Week 12, idiopathic patients
# [15] = 15 mg/day, Week 14 (off therapy), diabetic patients
# [16] = 15 mg/day, Week 14 (off therapy), idiopathic patients
# [17] = 30 mg/day, Week 4, diabetic patients
# [18] = 30 mg/day, Week 4, idiopathic patients
# [19] = 30 mg/day, Week 8, diabetic patients
# Excerpt: The total duration of study participation for each completed subject was approximately 19 weeks including: • Screening period: up to 5 weeks, including one week baseline period; • Treatment period: 12 weeks; and • Follow-up: 2 weeks.
# To qualify for entry into the Baseline Period of the study, subjects had to have: a) a composite score of 2 and <5 points on nausea, bloating, feeling excessively full after meals, and not able to finish a normal-sized meal on the GCS1-2W; b) a score of ≥3 points for at least 2 of these 4 symptoms on the GCS1-2W at Screening; and c) delayed gastric emptying as determined by either a 4-hour ^99mTc GES or GEBT. If a subject failed either the GES or GEBT at Screening, then a second gastric emptying test could have been performed during the Screening Period using the GEBT in order to qualify for the study. Subjects who were eligible for further study participation completed the 2 daily PRO measures (the Gastroparesis Rating Scale [GRS] and a daily version of the GCSI, designated the Gastroparesis Cardinal Symptoms Index—24-Hour Recall [GCS1-24H] in this study) over a 7-day period to establish baselines.
# After the 1-week Baseline Period, subjects were required to have a 7-day mean score of ≥2.5 and <5 points on the GCS.1-24H at Day 1 to be eligible for entry. Eligible subjects completed the Patient Assessment of Upper Gastrointestinal Quality of Life (PAG1-QOL) questionnaire to establish baseline QOL metrics at Day 1.
# During the treatment period, subjects were instructed to take 1 capsule of study drug once daily approximately 30 minutes prior to eating at approximately the same time each morning and to record the time of drug ingestion in the electronic diary. Subjects also completed the GCS1-24H and GRS on a daily basis using an electronic diary. At specified times, subjects also completed the PAG1-QOL questionnaire to assess QOL metrics and the Treatment Satisfaction Questionnaire. In addition, subjects and clinicians completed the Overall Treatment Effect (OTE) and Overall Gastroparesis Severity (OGS) instruments to serve as anchor instruments for the psychometric evaluation of the GRS measure. Subjects returned to the study center for safety and efficacy assessments as detailed in the Schedule of Study Procedures.
# A total score was used to assess the GCSI PRO, which comprised a mean of 3 means symptoms domain score.
# Each individual domain was evaluated. […] LS Mean Differences in each subgroup are calculated based on repeated measures mixed effect model with change from baseline in weekly GCSI-24H total score as dependent variable, treatment, gastroparesis type (diabetic vs. idiopathic), GE test time (historical vs. prospective), baseline GCSI 24H total score, time, subgroup variable, interaction effect of treatment by time, baseline GCSI 24H total score by time, treatment by subgroup variable, time by subgroup variable and treatment by time by subgroup variable as fixed effect, a random effect of subject within site, using an unstructured covariance structure. For GCSI baseline subgroup analysis, baseline 24H total score is replaced with GCSI baseline categorical variable.
substance,measurement,setting,value
"1-isopropyl-2-oxo-1,2-dihydroquinoline-3-carboxylic acid {(1S,3R,5R)-8-[(R)-2-hydroxy-3-(methanesulfonyl-methyl-amino)propyl]-8-azabicyclo[3.2.1]oct-3-yl}amide [Velusetrag]","LS Mean Difference vs placebo, weekly GCSI-24H total score","5 mg/day, Week 4, ITT",−0.4 points
same,"LS Mean change from baseline, weekly GCSI-24H total score","5 mg/day, Week 4, ITT",−1.5 (0.13) points
same,"LS Mean Difference vs placebo, weekly GCSI-24H total score","5 mg/day, Week 4, ITT, listed as VEL",−0.4 (0.18) points
same,"LS Mean Difference vs placebo, weekly GCSI-24H total score",[1],−0.2 (0.25) points
same,"LS Mean change from baseline, weekly GCSI-24H total score",[1],−1.5 (0.18) points
same,"LS Mean Difference vs placebo, weekly GCSI-24H total score",[2],−0.6 (0.26) points
same,"LS Mean change from baseline, weekly GCSI-24H total score",[2],−1.5 (0.18) points
same,"LS Mean Difference vs placebo, weekly GCSI-24H total score","5 mg/day, Week 8, ITT",−0.3 (0.20) points
same,"LS Mean change from baseline, weekly GCSI-24H total score","5 mg/day, Week 8, ITT",−1.6 (0.14) points
same,"LS Mean Difference vs placebo, weekly GCSI-24H total score",[3],−0.1 (0.27) points
same,"LS Mean change from baseline, weekly GCSI-24H total score",[3],−1.6 (0.19) points
same,"LS Mean Difference vs placebo, weekly GCSI-24H total score",[4],−0.6 (0.28) points
same,"LS Mean change from baseline, weekly GCSI-24H total score",[4],−1.6 (0.20) points
same,"LS Mean Difference vs placebo, weekly GCSI-24H total score","5 mg/day, Week 12, ITT",−0.3 points
same,"LS Mean change from baseline, weekly GCSI-24H total score","5 mg/day, Week 12, ITT",−1.7 (0.15) points
same,"LS Mean Difference vs placebo, weekly GCSI-24H total score","5 mg/day, Week 12, ITT, listed as VEL",−0.3 (0.21) points
same,"LS Mean Difference vs placebo, weekly GCSI-24H total score",[5],−0.0 (0.29) points
same,"LS Mean change from baseline, weekly GCSI-24H total score",[5],−1.7 (0.21) points
same,"LS Mean Difference vs placebo, weekly GCSI-24H total score",[6],−0.6 (0.30) points
same,"LS Mean change from baseline, weekly GCSI-24H total score",[6],−1.7 (0.21) points
same,"LS Mean Difference vs placebo, weekly GCSI-24H total score",[7],−0.2 (0.29) points
same,"LS Mean change from baseline, weekly GCSI-24H total score",[7],−1.7 (0.20) points
same,"LS Mean Difference vs placebo, weekly GCSI-24H total score",[8],−0.4 (0.30) points
same,"LS Mean change from baseline, weekly GCSI-24H total score",[8],−1.4 (0.21) points
same,"LS Mean Difference vs placebo, weekly GCSI-24H total score","15 mg/day, Week 4, ITT",−0.1 (0.19) points
same,"LS Mean change from baseline, weekly GCSI-24H total score","15 mg/day, Week 4, ITT",−1.2 (0.14) points
same,"LS Mean Difference vs placebo, weekly GCSI-24H total score",[9],0.1 points
same,"LS Mean change from baseline, weekly GCSI-24H total score",[9],−1.2 points
same,"LS Mean Difference vs placebo, weekly GCSI-24H total score",[10],−0.3 (0.28) points
same,"LS Mean change from baseline, weekly GCSI-24H total score",[10],−1.2 (0.20) points
same,"LS Mean Difference vs placebo, weekly GCSI-24H total score","15 mg/day, Week 8, ITT",−0.1 (0.21) points
same,"LS Mean change from baseline, weekly GCSI-24H total score","15 mg/day, Week 8, ITT",−1.3 (0.15) points
same,"LS Mean Difference vs placebo, weekly GCSI-24H total score",[11],0.3 points
same,"LS Mean change from baseline, weekly GCSI-24H total score",[11],−1.2 points
same,"LS Mean Difference vs placebo, weekly GCSI-24H total score",[12],−0.4 (0.30) points
same,"LS Mean change from baseline, weekly GCSI-24H total score",[12],−1.5 (0.22) points
same,"LS Mean Difference vs placebo, weekly GCSI-24H total score","15 mg/day, Week 12, ITT",−0.0 (0.22) points
same,"LS Mean change from baseline, weekly GCSI-24H total score","15 mg/day, Week 12, ITT",−1.4 (0.16) points
same,"LS Mean Difference vs placebo, weekly GCSI-24H total score",[13],0.4 points
same,"LS Mean change from baseline, weekly GCSI-24H total score",[13],−1.3 points
same,"LS Mean Difference vs placebo, weekly GCSI-24H total score",[14],−0.4 (0.32) points
same,"LS Mean change from baseline, weekly GCSI-24H total score",[14],−1.5 (0.24) points
same,"LS Mean Difference vs placebo, weekly GCSI-24H total score",[15],0.4 points
same,"LS Mean change from baseline, weekly GCSI-24H total score",[15],−1.1 points
same,"LS Mean Difference vs placebo, weekly GCSI-24H total score",[16],−0.1 (0.31) points
same,"LS Mean change from baseline, weekly GCSI-24H total score",[16],−1.2 (0.23) points
same,"LS Mean Difference vs placebo, weekly GCSI-24H total score","30 mg/day, Week 4, ITT",0.1 (0.19) points
same,"LS Mean change from baseline, weekly GCSI-24H total score","30 mg/day, Week 4, ITT",−1.0 (0.13) points
same,"LS Mean Difference vs placebo, weekly GCSI-24H total score",[17],0.2 points
same,"LS Mean change from baseline, weekly GCSI-24H total score",[17],−1.0 points
same,"LS Mean Difference vs placebo, weekly GCSI-24H total score",[18],−0.1 (0.26) points
same,"LS Mean change from baseline, weekly GCSI-24H total score",[18],−1.0 (0.18) points
same,"LS Mean Difference vs placebo, weekly GCSI-24H total score","30 mg/day, Week 8, ITT",−0.0 (0.20) points
same,"LS Mean change from baseline, weekly GCSI-24H total score","30 mg/day, Week 8, ITT",−1.3 (0.14) points
same,"LS Mean Difference vs placebo, weekly GCSI-24H total score",[19],0.2 points
same,"LS Mean change from baseline, weekly GCSI-24H total score",[19],−1.3 points
same,"LS Mean Difference vs placebo, weekly GCSI-24H total score","30 mg/day, Week 8, idiopathic patients",−0.2 (0.29) points
same,"LS Mean Difference vs placebo, weekly GCSI-24H total score","30 mg/day, Week 12, ITT",−0.1 (0.22) points
